According to patent US6169076A, “P-Boronophenylalanine complexes with fructose and related carbohydrates and polyols” (Glcosyn Pharmaceuticals, Inc., priority 1999, dated 2001):
In brackets after ≈: the same amount, converted by molar mass. Counter-ions that a name gives are not always drawn.

Legend:
[1] = Complex formation constants of p-BPA with carbohydrates and polyols, by integration of aryl protons in the 1H NMR spectrum (D2O, pH buffered at 7.4); assay type: physicochemical; conditions: for log Keq (complex formation constant, disaccharides) / log Keq (complex formation constant, monosaccharides) / log Keq (complex formation constant, polyols): L-p-BPA, 1H NMR, D2O, pH buffered at 7.4; for difference in binding constants: maltulose, lactulose and fructose compared; for decrease in binding: C-3 hydroxyl unavailable; for decrease in the pKeq values of these complexes: C-6 hydroxyl eliminated from binding, relative to fructose; for binding with l-p-BPA / change in the 1H NMR spectrum of l-p-BPA: in words
Text: (§1) The ratio of free p-BPA to p-BPA:carbohydrate complex can be determined by integration of the aromatic protons resonances (p-BPA, 7.73 and 7.33 ppm; p-BPA-carbohydrate complex, 7.5 and 7.2 ppm) in the ^1 H NMR spectrum using D2 O buffered to physiological pH as the solvent. A minimum of five measurements for each carbohydrate at various concentrations and p-BPA:carbohydrate ratios were taken, and the equilibrium constant calculated (Table 1 and Table 2). Likewise, complex formation constants for p-BPA and some polyols have been calculated (Table 3).
^a All values were determined for L-p-BPA by integration of aryl
protons in the ^j H NMR spectrum (D2 O, pH buffered at 7.4).
^a All values were determined for L-p-BPA by intergration of aryl
protons in the ^l H NMR spectrum (D2 O, pH buffered at 7.4).
The strong correspondence between the NMR data obtained for the l-p-BPA-fructose complex at physiological pH and one of the complexes (e.g., as observed for p-tolylboronic acid with fructose at pD 11-12) was further investigated by a systematic study of the binding ability of fructose-containing disaccharides (Table 2). […] However, the presence of the added 4-O-glucosyl or galactosyl group had no positive effect on binding either.
While the hydroxyl at C-3 for turanose is eliminated from binding due to the presence of the glucosyl moiety, the C-3 hydroxyl of leucrose is also unavailable for binding due to a likely significant contribution from the conformation that places the glucosyl unit in an equatorial position, resulting in a diaxial orientation between the anomeric C-2 hydroxyl and C-3 hydroxyl axial. Loss in binding ability for leucrose can also be attributed to the fructose unit being locked in the less favored pyranose ring form.

[2] = 0.1 M solution; cited from earlier work
[3] = patients injected with p-BPA solution of this acidity; cited from earlier work
[4] = State of p-BPA in solution at pH 7.4 with strongly complexing or excess carbohydrate/polyol; assay type: physicochemical
Text: as §1

[5] = cited from earlier work
melanoma cells = conditions: in words; cited from earlier work
murine melanoma model = conditions: systemic administration; cited from earlier work
[6] = solution from current methods, roughly one equivalent of NaCl; cited from earlier work
[7] = intravenous; solution from current methods; cited from earlier work
[8] = Hydration of the freeze-dried solid with warm water and standing at room temperature; assay type: physicochemical
Protocol: ^10 B enriched l-p-boronophenylalanine (0.520 g) and d-fructose (0.473 g) was suspended in distilled water (3 mL), and l-p-boronophenylalanine was dissolved by addition of 0.5 M NaOH (5.3 mL) with gentle heating. The pH of this solution is typically between 8.5 and 9.0. […] The solution is removed from the resin, and any l-p-boronophenylalanine that is suspended can be redissolved with gentle warming of the solution. The room temperature solution was then filtered through a 0.2μ filter and then freeze-dried to give sodium l-p-boronophenylalanine-d-fructose complex (0.934 g). […] M.p. 90-93° C.

In the case of `OC[C@H]1O[C@@H](O[C@@H]2[C@@H](CO)OC(O)(CO)[C@H]2O)[C@H](O)[C@@H](O)[C@H]1O` (mixture of isomers) [Lactulose], the “log Keq (complex formation constant, disaccharides)” value [1] is reported as 3.0 and the “difference in binding constants” value [1] is reported as “lack of appreciable difference in binding constants”.
In the case of `O=CC[C@@H](O)[C@H](O)[C@H](O)CO` [2-Deoxyglucose], the “log Keq (complex formation constant, monosaccharides)” value [1] is reported as less than 0.
With `OC[C@@H](O)[C@@H](O)[C@@H](O)CO` [Adonitol] the “log Keq (complex formation constant, polyols)” value [1] was 1.7.
In the case of `O=C(CO)[C@@H](O)[C@H](O)[C@H](O)CO` [Fructose], the “log Keq (complex formation constant, monosaccharides)” value [1] is reported as 3.2 and the “difference in binding constants” value [1] is reported as “lack of appreciable difference in binding constants”.
For `O=C[C@H](O)[C@@H](O)[C@@H](O)[C@H](O)CO` [Galactose], the “log Keq (complex formation constant, monosaccharides)” value [1] was 1.6.
For `O=C[C@H](O)[C@@H](O)[C@H](O)[C@H](O)CO` [Glucose], the “log Keq (complex formation constant, monosaccharides)” value [1] was 1.4.
In the case of `OC[C@H]1O[C@H](O[C@@H]2COC(O)(CO)[C@@H](O)[C@@H]2O)[C@H](O)[C@@H](O)[C@@H]1O` (some centres unmarked) [Leucrose], the decrease in binding [1] is reported as 1.5 pKeq and the “log Keq (complex formation constant, disaccharides)” value [1] is reported as 1.7.
In the case of `OC[C@@H](O)[C@@H](O)[C@H](O)[C@H](O)CO` [Mannitol], the “log Keq (complex formation constant, polyols)” value [1] is reported as 2.7.
In the case of `O=C[C@@H](O)[C@@H](O)[C@H](O)[C@H](O)CO` [Mannose], the “log Keq (complex formation constant, monosaccharides)” value [1] is reported as 1.3.
In the case of `OC[C@H]1O[C@H](OC[C@H]2OC(O)(CO)[C@@H](O)[C@@H]2O)[C@H](O)[C@@H](O)[C@@H]1O` (some centres unmarked) [Palatinose], the “decrease in the pKeq values of these complexes” value [1] is reported as 0.5 pKeq and the “log Keq (complex formation constant, disaccharides)” value [1] is reported as 2.6.
For `O=C[C@H](O)[C@H](O)[C@H](O)CO` [Ribose], the “log Keq (complex formation constant, monosaccharides)” value [1] was 1.8.
With `OC[C@@H](O)[C@@H](O)[C@H](O)[C@@H](O)CO` [Sorbitol] the “log Keq (complex formation constant, polyols)” value [1] was 3.2.
In the case of `O=C(CO)[C@H](O)[C@@H](O)[C@H](O)CO` [Sorbose], the “decrease in the pKeq values of these complexes” value [1] is reported as 0.5 pKeq and the “log Keq (complex formation constant, monosaccharides)” value [1] is reported as 2.7.
In the case of `O=C(CO)[C@@H](O[C@H]1O[C@H](CO)[C@@H](O)[C@H](O)[C@H]1O)[C@H](O)[C@H](O)CO` [Turanose], the decrease in binding [1] is reported as 1.5 pKeq and the “log Keq (complex formation constant, disaccharides)” value [1] is reported as 1.6.
In the case of `OC[C@@H](O)[C@H](O)[C@@H](O)CO` [Xylitol], the “log Keq (complex formation constant, polyols)” value [1] is reported as 2.5.
For `NC(Cc1ccc(B(O)O)cc1)C(=O)O` (centres unmarked) [hydrochloric acid salts of p-BPA], the “pH value of solution” value [2] is listed as “approximately 1.5” and the pain on injection [3] is listed as “causes pain”.
With `CO[C@H]1O[C@H](CO)[C@@H](O)[C@H](O)[C@H]1O` [methyl-α-glucopyranoside] the “binding with l-p-BPA” value [1] was “complete lack of binding” and the “change in the 1H NMR spectrum of l-p-BPA” value [1] was “no change”.
In the case of `CO[C@@H]1O[C@H](CO)[C@H](O)[C@H](O)[C@H]1O` [methyl-β-galactopyranoside], the “binding with l-p-BPA” value [1] is reported as “complete lack of binding” and the “change in the 1H NMR spectrum of l-p-BPA” value [1] is reported as “no change”.
For `N[C@@H](Cc1ccc(B(O)O)cc1)C(=O)O` [p-BPA, p-Boronophenylalanine], the “p-BPA remaining in solution” value ([4]; fructose, sorbose, or large excess of another carbohydrate or polyol) is listed as “all of the p-BPA remains in solution”, the “p-BPA present as its sodium carboxylate” value ([4]; remainder as free acid) is listed as “approximately 90%” and the “water solubility at physiological pH” value ([5]; pH 7.4, in words) is listed as “poor water solubility”. The solubility in water ([5]; water) was 1.6 g/L (≈ 7.66 mM) and the “uptake by melanoma cells” value (melanoma cells) was “selectively taken up by melanoma cells”.
In the case of `[NH3+]C(Cc1ccc([B-]23OC[C@H]4O[C@@](CO)(O2)[C@@H](O3)[C@@H]4O)cc1)C(=O)O` (some centres unmarked) [p-BPA-fructose complex], the 10B uptake (murine melanoma model) is given as “increases the ^10 B uptake”, the “osmotic property of solution” value [6] is given as “greatly exceeding its iso-osmotic point with blood” and the toxicity [7] is given as “toxicity observed”.
With `[NH3+][C@@H](Cc1ccc([B-]23OC[C@H]4O[C@@](CO)(O2)[C@@H](O3)[C@@H]4O)cc1)C(=O)O` [sodium l-p-boronophenylalanine-d-fructose complex] the “stability of the hydrated solution (remains dissolved)” value ([8]; prolonged standing (i.e., 48 hrs) at room temperature) was “remains completely dissolved” and the solubility ([8]; warm water, 60° C.) was roughly 100 mg/mL.
With `OC[C@H]1O[C@@](CO)(O[C@H]2O[C@H](CO)[C@@H](O)[C@H](O)[C@H]2O)[C@@H](O)[C@@H]1O` [sucrose] the “binding with l-p-BPA” value [1] was “complete lack of binding” and the “change in the 1H NMR spectrum of l-p-BPA” value [1] was “no change”.
With Maltulose the “log Keq (complex formation constant, disaccharides)” value [1] was 3.1 and the “difference in binding constants” value [1] was “lack of appreciable difference in binding constants”.
